# According to ChEMBL document CHEMBL1201862, “PubChem BioAssay data set” (2004):
#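 Grown in 96-well plates, cells were treated for 48 hours with each compound at five concentrations. Insufficient inhibition: endpoint recorded as highest concentration tested. The concentration for 50% growth inhibition is given as GI50.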 Active and inactive are the calls of the source. Rule as the data show it: active = GI50 up to about 1.1 µM and inactive = higher.
# Legend:
# Experiment in all cases: DTP human tumour cell line panel, 48 h
# SF-295 = test system: SF-295
# HOP-62 = test system: HOP-62
# HCC 2998 = test system: HCC 2998
# LOX IMVI = test system: LOX IMVI
# NCI-H522 = test system: NCI-H522
# COLO 205 = test system: COLO 205
# ACHN = test system: ACHN
# SK-MEL-5 = test system: SK-MEL-5
# SNB-19 = test system: SNB-19
# M14 = test system: M14
# IGROV-1 = test system: IGROV-1
# NCI-H226 = test system: NCI-H226
# SK-OV-3 = test system: SK-OV-3
# HCT-15 = test system: HCT-15
# SK-MEL-2 = test system: SK-MEL-2
# HOP-92 = test system: HOP-92
# U-251 = test system: U-251
# SF-268 = test system: SF-268
# OVCAR-8 = test system: OVCAR-8
# MOLT-4 = test system: MOLT-4
Structure (SMILES),GI50 (SF-295),GI50 (HOP-62),GI50 (HCC 2998),GI50 (LOX IMVI),GI50 (NCI-H522),GI50 (COLO 205),GI50 (ACHN),GI50 (SK-MEL-5),GI50 (SNB-19),GI50 (M14),GI50 (IGROV-1),GI50 (NCI-H226),GI50 (SK-OV-3),GI50 (HCT-15) [µM],GI50 (SK-MEL-2),GI50 (HOP-92),GI50 (U-251),GI50 (SF-268),GI50 (OVCAR-8),GI50 (MOLT-4)
C=C1Oc2nc3ccccc3c(=O)n2C1(C)C,> 10 µM (inactive),> 100 µM (inactive),> 100 µM (inactive),> 100 µM (inactive),> 100 µM (inactive),> 100 µM (inactive),> 100 µM (inactive),> 100 µM (inactive),> 100 µM (inactive),> 100 µM (inactive),> 100 µM (inactive),> 100 µM (inactive),> 100 µM (inactive),> 100,> 100 µM (inactive),> 100 µM (inactive),> 100 µM (inactive),> 100 µM (inactive),> 100 µM (inactive),> 100 µM (inactive)
O=C1N(C2CCCCC2)CC12CCCCC2,–,> 100 µM (inactive),> 100 µM (inactive),> 100 µM (inactive),> 100 µM (inactive),> 100 µM (inactive),> 100 µM (inactive),> 100 µM (inactive),> 100 µM (inactive),> 100 µM (inactive),> 100 µM (inactive),> 100 µM (inactive),> 100 µM (inactive),> 100,> 100 µM (inactive),> 100 µM (inactive),> 100 µM (inactive),> 100 µM (inactive),> 100 µM (inactive),> 100 µM (inactive)
O=P1(O)c2ccccc2CS(=O)(=O)Cc2ccccc21,> 100 µM (inactive),> 100 µM (inactive),> 100 µM (inactive),> 100 µM (inactive),> 100 µM (inactive),> 100 µM (inactive),> 100 µM (inactive),> 100 µM (inactive),> 100 µM (inactive),> 100 µM (inactive),> 100 µM (inactive),> 100 µM (inactive),> 100 µM (inactive),> 100,> 100 µM (inactive),> 100 µM (inactive),> 100 µM (inactive),> 100 µM (inactive),> 100 µM (inactive),> 100 µM (inactive)
C=C1CC(C)(COc2ccc3c(C)c(C)c(=O)oc3c2C)OC1=O (centres undefined),5.19 µM (inactive),12.5 µM (inactive),1.76 µM (inactive),1.2 µM (inactive),1.56 µM (inactive),1.06 µM (active),2.33 µM (inactive),1.68 µM (inactive),13.4 µM (inactive),2.56 µM (inactive),1.63 µM (inactive),13.7 µM (inactive),3.05 µM (inactive),1.56,2.01 µM (inactive),1.26 µM (inactive),6.56 µM (inactive),4.15 µM (inactive),2.11 µM (inactive),1.08 µM (active)
CCOC(=O)/C(=C/c1ccc[nH]1)P(=O)(OCC)OCC,> 100 µM (inactive),> 100 µM (inactive),> 100 µM (inactive),> 100 µM (inactive),> 100 µM (inactive),> 100 µM (inactive),> 100 µM (inactive),> 100 µM (inactive),> 100 µM (inactive),> 100 µM (inactive),–,> 100 µM (inactive),> 100 µM (inactive),–,> 100 µM (inactive),94.2 µM (inactive),> 100 µM (inactive),> 100 µM (inactive),> 100 µM (inactive),> 100 µM (inactive)
CC(C)Oc1cccc(N2C(n3ccnc3)=Nc3ccncc3S2(=O)=O)c1,34.9 µM (inactive),18.3 µM (inactive),16.9 µM (inactive),16.2 µM (inactive),9.44 µM (inactive),10.2 µM (inactive),10 µM (inactive),13.2 µM (inactive),20.5 µM (inactive),13.6 µM (inactive),14.6 µM (inactive),21.7 µM (inactive),17.5 µM (inactive),13.6,13.1 µM (inactive),12.7 µM (inactive),15.4 µM (inactive),16.3 µM (inactive),14.5 µM (inactive),4.3 µM (inactive)
CCOC(=O)c1cn2c(n1)sc1cc([N+](=O)[O-])ccc12,37.3 µM (inactive),37 µM (inactive),> 100 µM (inactive),> 100 µM (inactive),> 100 µM (inactive),> 100 µM (inactive),92.3 µM (inactive),> 100 µM (inactive),78.2 µM (inactive),> 100 µM (inactive),> 100 µM (inactive),> 100 µM (inactive),> 100 µM (inactive),> 100,> 100 µM (inactive),> 100 µM (inactive),76 µM (inactive),> 100 µM (inactive),> 100 µM (inactive),> 100 µM (inactive)
CC(=O)/C=C1\CC(=O)N(C)c2ccccc2N1,> 100 µM (inactive),> 100 µM (inactive),> 100 µM (inactive),> 100 µM (inactive),> 100 µM (inactive),44.7 µM (inactive),–,0.57 µM (active),> 100 µM (inactive),> 100 µM (inactive),> 100 µM (inactive),> 100 µM (inactive),> 100 µM (inactive),–,> 100 µM (inactive),> 100 µM (inactive),> 100 µM (inactive),> 100 µM (inactive),> 100 µM (inactive),> 100 µM (inactive)
CCOC(=O)C(NC(=O)N(C1=NCC(C)S1)C1CCCCC1)(OC)C(F)(F)F (centres undefined),49.8 µM (inactive),15.8 µM (inactive),43.9 µM (inactive),19.7 µM (inactive),27.7 µM (inactive),23.2 µM (inactive),31.2 µM (inactive),23.8 µM (inactive),49.3 µM (inactive),51.2 µM (inactive),–,21.1 µM (inactive),52.4 µM (inactive),30.1,34 µM (inactive),46 µM (inactive),22.6 µM (inactive),32.6 µM (inactive),70.5 µM (inactive),37.8 µM (inactive)
CC1(c2nc3ccccc3[nH]2)CCC(C#N)C(C)(C)O1 (centres undefined),> 100 µM (inactive),> 100 µM (inactive),> 100 µM (inactive),> 100 µM (inactive),> 100 µM (inactive),> 100 µM (inactive),> 100 µM (inactive),> 100 µM (inactive),> 100 µM (inactive),> 100 µM (inactive),> 100 µM (inactive),> 100 µM (inactive),> 100 µM (inactive),> 100,> 100 µM (inactive),> 100 µM (inactive),> 100 µM (inactive),> 100 µM (inactive),> 100 µM (inactive),> 100 µM (inactive)
CS(=O)(=O)c1n[nH]c2nc(O)nc(O)c12,> 10 µM (inactive),> 10 µM (inactive),> 10 µM (inactive),> 10 µM (inactive),> 10 µM (inactive),> 10 µM (inactive),> 10 µM (inactive),> 10 µM (inactive),> 10 µM (inactive),> 10 µM (inactive),> 10 µM (inactive),> 10 µM (inactive),> 10 µM (inactive),> 10,> 10 µM (inactive),> 10 µM (inactive),> 10 µM (inactive),> 10 µM (inactive),> 10 µM (inactive),> 10 µM (inactive)
